The text below walks through data of patent US20100184786A1, “Polar Quinazolines” (Wyeth LLC, priority 2008, published 2010).

pEC50, pIC50: −log10 of the molar value.

Broadly, the pIC50 is the IC50 on a negative log10 scale, so that one unit is a factor of ten. In general, pEC50 refers to −log10 of the EC50, conventionally taken in molar units. Higher therefore signals a small EC50.

Data set [1] can be described thus: Brain penetration data. It counts as in vivo. The conditions noted are these: brain/blood, read-out: Brain/Blood ratio.
Data set [2] has as its target T1, human LXRβ (Homo sapiens, UniProt P55055).
T1 construct: biotin (biotinylated); made in house; host or cells: E. coli
T1 sequence (P55055 1-460): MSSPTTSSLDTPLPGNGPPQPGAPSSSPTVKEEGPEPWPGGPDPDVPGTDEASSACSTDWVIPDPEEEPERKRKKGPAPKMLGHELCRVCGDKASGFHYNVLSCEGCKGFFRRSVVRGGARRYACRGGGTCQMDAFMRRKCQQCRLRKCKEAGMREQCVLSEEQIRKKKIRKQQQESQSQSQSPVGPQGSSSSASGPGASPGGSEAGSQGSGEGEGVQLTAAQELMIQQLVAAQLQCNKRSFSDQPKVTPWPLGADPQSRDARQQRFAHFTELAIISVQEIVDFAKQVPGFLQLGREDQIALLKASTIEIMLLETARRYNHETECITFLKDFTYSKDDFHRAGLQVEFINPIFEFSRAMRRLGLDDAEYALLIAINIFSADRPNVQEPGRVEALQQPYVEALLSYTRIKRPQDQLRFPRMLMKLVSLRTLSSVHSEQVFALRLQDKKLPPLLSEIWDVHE
Nature of the data set: Ligand-binding test procedure for human LXRβ (3H T0901317 tracer, flash plates). The note with it: competition with 3H T0901317; read-out: hLXRb binding IC50. As for the experimental part:
I. Ligand-Binding Test Procedure for Human LXRβ.
• Buffer: 100 mM KCl, 100 mM TRIS (pH 7.4 at +4° C.), 8.6% glycerol, 0.1 mM PMSF*, 2 mM MTG*, 0.2% CHAPS (* not used in wash buffer) • Tracer: ^3H T0901317 • Receptor source: E. coli extracted from cells expressing biotinylated hLXRβ. Extract was made in a similar buffer as above, but with 50 mM TRIS.
• Washed streptavidin and coated flash plates with wash buffer. • Diluted receptor extract to give Bmax˜4000 cpm and add to the wells. • Wrapped the plates in aluminum foil and stored them at +4° C. overnight.
(§1) • Made a dilution series in DMSO of the test ligands. • Made a 5 nM solution of the radioactive tracer in buffer. • Mixed 2500 diluted tracer with 50 of the test ligand from each concentration of the dilution series. • Washed the receptor-coated flash plates. • Added 2000 per well of the ligand/radiolabel mixture to the receptor-coated flash plates. • Wrapped the plates in aluminum foil and incubate at +4° C. over night.
• Aspirated wells, and washed the flashed plates. Sealed the plate. • Measured the remaining radioactivity in the plate.

The target in data set [3] is T2, human LXRα (Homo sapiens, UniProt Q13133).
T2 construct: biotin (biotinylated); made in house; host or cells: E. coli
T2 sequence (Q13133 1-447): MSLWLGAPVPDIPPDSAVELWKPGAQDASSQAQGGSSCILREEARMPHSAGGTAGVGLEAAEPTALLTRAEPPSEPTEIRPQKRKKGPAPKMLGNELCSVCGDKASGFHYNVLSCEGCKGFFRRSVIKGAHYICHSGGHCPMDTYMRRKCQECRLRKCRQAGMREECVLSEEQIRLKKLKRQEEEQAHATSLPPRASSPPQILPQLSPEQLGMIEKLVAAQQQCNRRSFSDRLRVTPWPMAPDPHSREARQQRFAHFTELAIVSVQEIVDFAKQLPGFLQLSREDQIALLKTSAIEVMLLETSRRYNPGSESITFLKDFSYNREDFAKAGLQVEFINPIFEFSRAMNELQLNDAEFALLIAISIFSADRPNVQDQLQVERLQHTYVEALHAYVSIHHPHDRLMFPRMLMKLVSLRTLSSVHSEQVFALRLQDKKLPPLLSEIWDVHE
Nature of the data set: Ligand-binding test procedure for human LXRα (3H T0901317 tracer, flash plates). The conditions noted are these: competition with 3H T0901317; read-out: hLXRa binding IC50. As for the experimental part:
II. Ligand-Binding Test Procedure for Human LXRa.
• Buffer: 100 mM KCl, 100 mM TRIS (pH 7.4 at +4° C.), 8.6% glycerol, 0.1 mM PMSF*, 2 mM MTG*, 0.2% CHAPS (* not used in wash buffer) • Tracer: ^3H T0901317 • Receptor source: E. coli extract from cells expressing biotinylated hLXRα. Extract was made in a similar buffer as above, but with 50 mM TRIS.
• Washed streptavidin and coated flash plates with wash buffer. • Diluted receptor extract to give Bmax˜4000 cpm and add to the wells. • Wrapped the plates in aluminum foil and stored them at +4° C. over night.
as §1
• Aspirated wells, and wash the flashed plates. Sealed the plate. • Measured the remaining radioactivity in the plate.

Data set [4] relates to ABCA1 gene. Nature of the data set: Gene regulation by LXR (murine): ABCA1 gene regulation, mRNA by real-time PCR. In kind it is cell-based. The note with it: Mus musculus; for Emax: read-out: Agonism ABCA1. In general terms: Quantitative PCR measures a nucleic acid by following its amplification.

For the molecule `CCS(=O)(=O)c1cccc(Oc2ccc(Cl)c(-c3nc(C)nc4c(C(F)(F)F)cccc34)c2)c1`, the Kp in data set [1] amounted to 1.57.
Same read-out and setting: with `CS(=O)(=O)c1cccc(Oc2ccc(F)c(-c3ncnc4c(Cl)cccc34)c2)c1` the figure was 1.2.
On to `NC(=O)CCCS(=O)(=O)c1cccc(Oc2ccc(Cl)c(-c3ncnc4c(C(F)(F)F)cccc34)c2)c1` [Example 9, 4-[(3-{4-chloro-3-[8-(trifluoromethyl)quinazolin-4-yl]phenoxy}phenyl)sulfonyl]-butanamide], for which the negative logarithm of the IC50 (pIC50) in data set [2] was 7.39. For the same molecule, in data set [3], the pIC50 was 6.39. In data set [4], the negative-log EC50 (pEC50) is 5.72 and the Emax amounted to 91%. Moreover, the Kp in data set [1] was 0.06.
As to `CCS(=O)(=O)c1cccc(Oc2ccc(F)c(-c3ncnc4c(Cl)cccc34)c2)c1`, the Kp in data set [1] was determined as 1.2.
Consider `O=C(O)CS(=O)(=O)c1cccc(Oc2ccc(Cl)c(-c3ncnc4c(C(F)(F)F)cccc34)c2)c1` [Example 15, [(3-{4-chloro-3-[8-(trifluoromethyl)quinazolin-4-yl]phenoxy}phenyl)sulfonyl]acetic acid], for which the pIC50 in data set [2] was 7.72. The pIC50 in data set [3] is 5.99. In addition, in data set [4], the negative-log EC50 (pEC50) is 5.53 and the Emax is 51%.
On the same counts, the results for `CS(=O)(=O)CCCS(=O)(=O)c1cccc(Oc2ccc(F)c(-c3ncnc4c(C(F)(F)F)cccc34)c2)c1` [Example 32, 4-[2-fluoro-5-(3-{[3-(methylsulfonyl)propyl]sulfonyl}phenoxy)phenyl]-8-(trifluoromethyl)-quinazoline] are 7.23, 6.18, 5.99 and 78%.
With `N#CCCCS(=O)(=O)c1cccc(Oc2ccc(F)c(-c3ncnc4c(C(F)(F)F)cccc34)c2)c1` [Example 25, 4-[(3-{4-fluoro-3-[8-(trifluoromethyl)quinazolin-4-yl]phenoxy}phenyl)sulfonyl]butanenitrile], the pIC50 in data set [2] is 6.95. For the same molecule, the pIC50 in data set [3] was 5.82. Also, in data set [4], the negative-log EC50 (pEC50) was 5.61 and the Emax came out at 68%. Also, the Kp in data set [1] came to 0.55.
With `Cc1nc(-c2cccc(-c3cccc(S(C)(=O)=O)c3)c2)c2cccc(C(F)(F)F)c2n1`, the Kp in data set [1] turned out to be 2.27.
Still for that read-out and setting: with `CS(=O)(=O)c1cccc(Oc2ccc(F)c(-c3ncnc4c(C(F)(F)F)cccc34)c2)c1` the figure was 1.45.
With `CNS(=O)(=O)c1cccc(Oc2ccc(F)c(-c3ncnc4c(C(F)(F)F)cccc34)c2)c1` [Example 22], the pIC50 in data set [2] was 8.00. The negative-log IC50 (pIC50) in data set [3] was 6.83. Moreover, in data set [4], the pEC50 is 6.54 and the Emax is 81%.
For the molecule `Cc1nc(-c2cc(Oc3cccc(S(=O)(=O)CCCCC#N)c3)ccc2Cl)c2cccc(C(F)(F)F)c2n1` [Example 61, 5-[(3-{4-chloro-3-[2-methyl-8-(trifluoromethyl)quinazolin-4-yl]phenoxy}phenyl)sulfonyl]-pentanenitrile], the pIC50 in data set [2] was 7.01; in data set [3], 5.55. Further, the Emax in data set [4] is 27%.
For the molecule `N#CCS(=O)(=O)c1cccc(Oc2ccc(Cl)c(-c3ncnc4c(C(F)(F)F)cccc34)c2)c1` [Example 11, [(3-{4-chloro-3-[8-(trifluoromethyl)quinazolin-4-yl]phenoxy}phenyl)sulfonyl]-acetonitrile], the pIC50 in data set [2] is 7.40. Also, the pIC50 in data set [3] is 6.37. For the same molecule, in data set [4], the negative-log EC50 (pEC50) was 5.76 and the Emax turned out to be 95%. Besides, the Kp in data set [1] worked out at 0.16.
For `CS(=O)(=O)CCCS(=O)(=O)c1cccc(Oc2ccc(Cl)c(-c3ncnc4c(C(F)(F)F)cccc34)c2)c1` [Example 5, 4-[2-chloro-5-(3-{[3-(methylsulfonyl)propyl]sulfonyl}phenoxy)phenyl]-8-(trifluoro-methyl)quinazoline], the negative-log IC50 (pIC50) was 6.85 in data set [2] and 6.05 in data set [3]. Further, the negative-log EC50 (pEC50) in data set [4] is 5.49. The Emax in data set [4] is 51%.
Taken in the same sequence, the figures for `NS(=O)(=O)c1cccc(Oc2ccc(Cl)c(-c3ncnc4c(C(F)(F)F)cccc34)c2)c1` [Example 19, 3-{4-chloro-3-[8-(trifluoromethyl)quinazolin-4-yl]phenoxy}benzenesulfonamide] were 7.31, 6.24, 6.66 and 95%.
For the molecule `NCCCS(=O)(=O)c1cccc(Oc2ccc(F)c(-c3ncnc4c(C(F)(F)F)cccc34)c2)c1` [Example 28, 3-[(3-{4-fluoro-3-[8-(trifluoromethyl)quinazolin-4-yl]phenoxy}phenyl)sulfonyl]propan-1-amine], the negative-log IC50 (pIC50) is 6.94 in data set [2] and 5.52 in data set [3]. The Emax in data set [4] was 3%.
Regarding `N#CCCCS(=O)(=O)c1cccc(Oc2ccc(Cl)c(-c3ncnc4c(C(F)(F)F)cccc34)c2)c1` [Example 3, 4-[(3-{4-chloro-3-[8-(trifluoromethyl)quinazolin-4-yl]phenoxy}phenyl)sulfonyl]-butanenitrile], in data set [2], the negative logarithm of the IC50 (pIC50) was 7.46. Further, the negative-log IC50 (pIC50) in data set [3] was 6.29. Moreover, in data set [4], the pEC50 is 5.57 and the Emax stood at 71%.
Taken in the same sequence, the figures for `N#CCCCCS(=O)(=O)c1cccc(Oc2ccc(F)c(-c3ncnc4c(C(F)(F)F)cccc34)c2)c1` [Example 31, 5-[(3-{4-fluoro-3-[8-(trifluoromethyl)quinazolin-4-yl]phenoxy}phenyl)sulfonyl]pentanenitrile] were 7.28, 6.20, 5.75 and 99%.
